Data: US20070123514A1, “Methods of modulating neurotrophin-mediated activity” (PainCeptor Pharma Corporation, priority 2005, published 2007)

Key:
[1] = test system: NGF-induced Erk 1/2 phosphorylation in PC12 cells; experiment: Erk phosphorylation in NGF-stimulated PC12 cells (Western blot, ELISA); assay type: cell-based, rat; conditions: 1 ng/mL NGF, result in words
Method: This assay is useful for establishing that the compounds of the invention are functional NGF antagonists, not receptor agonists (an agonist could conceivably block NGF binding but actually activate the receptor). Erk 1/2 is a kinase activated down stream of TrkA and is a well studied member of the NGF-induced signal transduction cascade.
PC12 cells expressing TrkA and p75 were acutely exposed to 1 ng/mL NGF (15 min; 37° C.; 5% CO2) that was pre-incubated (30 min; room temperature) with or without the compounds. Cells were lysed in Laemmli sample buffer (for SDS-PAGE) or a lysis buffer containing Triton X-100 (for ELISA). Following SDS-PAGE, proteins were electroblotted onto nitrocellulose and immunoprobed for phosphorylated Erk 1 and 2. Blocking and primary antibody incubations of immunoblots were performed in Tris-buffered saline-Tween (10 mM Tris, pH 8.0, 150 mM NaCl, and 0.2% Tween 20) supplemented with 5% (w/v) bovine serum albumin (BSA); secondary antibody incubations were performed in 5% (w/v) dried skim milk powder. Immunoreactive bands were detected by chemiluminescence.
To detect phosphorylated Erk 1/2 by ELISA, a kit from R&D (Minneapolis, Minn.) Systems was used. […] The quantity of phosphoryated Erk 1/2 was quantified colorometrically with a standard HRP-streptavidin reaction.

PC12 (TrkA & p75) = experiment: 125I-NGF binding displacement in PC12 cells; design: species or system rat; conditions: PC12 cells expressing TrkA and p75; result in words
Method: The method for acquiring the PC12 data described in Table 1 is described herein in Example 1. Each experiment was done at least once with an n value of 4 for each data point. (n/a=not acquired)
All cells were incubated at 37° C. in 5% CO2. PC12 cells were maintained in RPMI-1640 medium supplemented with 10% fetal bovine serum (FBS). A875 human melanoma cells were maintained in DMEM with 10% FBS. HEK 293 cells were stably transfected with human TrkA plasmid (see below) and maintained in DMEM with 10% FBS and G418 (600 μg/mL) for selection.
NGF binding was evaluated using methods familiar to those who are skilled in the art. Briefly, cells expressing one or both NGF receptors (PC12: TrkA+p75; A875: p75 alone; HEK_trkA: TrkA alone) were harvested by replacing the medium with calcium-magnesium free balanced salt (Grey's) solution and incubating at 37° C. for 15 min. For NGF binding, cells were resuspended at a concentration of 2×10^6 cells/mL in HEPES-Krebs-Ringer (HKR) buffer (10 mM HEPES; 125 mM NaCl; 4.8 mM KCl; 1.3 mM CaCl2; 1.2 mM MgSO4; 1.2 mM KH2PO4; 1 mg/ml BSA; 1 mg/ml glucose; pH 7.4) and exposed to ^125I-NGF (˜0.1 nM) in the presence or absence of varying concentrations of the compound. Non-specific binding was determined for reference by incubating ^125I-NGF with an excess of non-radioactive NGF in the abence of compound. Following a two-hour incubation period at 4° C., ^125I-NGF bound to the cells was quantified in a gamma radiation counter following separation from unbound NGF by filtration or centrifugation through glycerol (10% in HKR). Inhibition of binding was calculated as a percent of the specific binding (calculated as the differential between ^125I-NGF binding in the absence and presence of an excess of non-radioactive NGF without compound). Dose-response inhibition curves were typically generated with seven concentrations of a given compound, with three replicates for each concentration. For most compounds, multiple dose-response curves were generated.
The IC50 data shown in Table 1 were acquired using the procedure described herein using PC12 cells.

O=C(O)c1ccc(Cl)c(N2C(=O)c3cccc4cc([N+](=O)[O-])cc(c34)C2=O)c1 [Compound 5, 4-Chloro-3-(5-nitro-1,3-dioxo-1H,3H-benzo[de]isoquinolin-2-yl)-benzoic acid]
NGF-induced Erk 1/2 phosphorylation, ELISA [1]: inhibits NGF-induced Erk 1/2 phosphorylation
NGF-induced Erk 1/2 phosphorylation, Western blot [1]: inhibits NGF-induced Erk 1/2 phosphorylation
blocking of NGF binding (dose-response curve) (PC12 (TrkA & p75)): effectively block NGF binding
